Experimental findings from US20260347364A1, “PYRAZOLO[4,3-F]QUINAZOLINE DERIVATIVES AS MODULATORS OF G12D MUTANT KRAS USEFUL FOR THE TREATMENT OF CANCER” (JAZZ PHARMACEUTICALS IRELAND LTD., priority 2023, published 2026) are described below.

In experiment [1] the target is T1, KRAS WT (Homo sapiens, UniProt P01116).
T1 construct: aa1-188 KRAS WT
The experiment in a line: HTRF nucleotide exchange assay, KRAS WT. Format: biochemical. Conditions: class symbols; for IC50: HTRF nucleotide exchange assay (NEA). A general note: TR-FRET usually uses a lanthanide donor and a delayed reading to cut background.

The target of experiment [2] is T2, KRAS G12D (Homo sapiens, UniProt P01116, G12D).
T2 construct: aa1-188 KRAS WT, HRAS WT, NRAS WT, or KRAS containing the G12D
Nature of the experiment: HTRF nucleotide exchange assay, KRAS G12D. It is filed as biochemical. Conditions: class symbols; for IC50: HTRF nucleotide exchange assay (NEA).

With `CCc1c(F)ccc2cc(O)cc(-c3cc4nc(OC[C@@]56CCCN5C[C@H](F)C6)nc(N5CCC(C)(OC)CC5)c4c4cn(C)nc34)c12` [Example 119, 5-ethyl-6-fluoro-4-[9-(4-methoxy-4-methyl-1-piperidyl)-2-methyl-7-[[(2R,8S)-2-fluoro-1,2,3,5,6,7-hexahydropyrrolizin-8-yl]methoxy]pyrazolo[4,3-f]quinazolin-4-yl]naphthalen-2-ol], the IC50 in experiment [1] and in experiment [2] was 100 to 10000 nM each time.
Consider `CCc1c(F)ccc2cc(O)cc(-c3cc4nc(OC[C@@]56CCCN5C[C@H](F)C6)nc(N5CCOCC(O)C5)c4c4cn(C)nc34)c12` (stereo partly drawn) [Example 120, 4-[4-(8-ethyl-7-fluoro-3-hydroxy-1-naphthyl)-2-methyl-7-[[(2R,8S)-2-fluoro-1,2,3,5,6,7-hexahydropyrrolizin-8-yl]methoxy]pyrazolo[4,3-f]quinazolin-9-yl]-1,4-oxazepan-6-ol], for which the IC50 in experiment [1] and in experiment [2] was at most 10 nM each time.
Regarding `CCc1c(F)ccc2cc(O)cc(-c3cc4nc(OC[C@@]56CCCN5C[C@H](F)C6)nc(N5CCOCC(C)C5)c4c4cn(C)nc34)c12` (stereo partly drawn) [Example 121, 5-ethyl-6-fluoro-4-[2-methyl-9-(6-methyl-1,4-oxazepan-4-yl)-7-[[(2R,8S)-2-fluoro-1,2,3,5,6,7-hexahydropyrrolizin-8-yl]methoxy]pyrazolo[4,3-f]quinazolin-4-yl]naphthalen-2-ol], the IC50 in experiment [1] and in experiment [2] was at most 10 nM each time.
Turning to `CCc1c(F)ccc2cc(O)cc(-c3cc4nc(OC[C@@]56CCCN5C[C@H](F)C6)nc(N5CCC(CO)C5)c4c4cn(C)nc34)c12` (stereo partly drawn) [Example 122, 5-ethyl-6-fluoro-4-[9-[3-(hydroxymethyl)pyrrolidin-1-yl]-2-methyl-7-[[(2R,8S)-2-fluoro-1,2,3,5,6,7-hexahydropyrrolizin-8-yl]methoxy]pyrazolo[4,3-f]quinazolin-4-yl]naphthalen-2-ol], the IC50 in experiment [1] and in experiment [2] was at most 10 nM in each case.
In the case of `CCc1c(F)ccc2cc(O)cc(-c3cc4nc(OC[C@@]56CCCN5C[C@H](F)C6)nc(N5CCOCC(O)(C(F)(F)F)C5)c4c4cn(C)nc34)c12` (stereo partly drawn) [Example 123, 4-[4-(8-ethyl-7-fluoro-3-hydroxy-1-naphthyl)-2-methyl-7-[[(2R,8S)-2-fluoro-1,2,3,5,6,7-hexahydropyrrolizin-8-yl]methoxy]pyrazolo[4,3-f]quinazolin-9-yl]-6-(trifluoromethyl)-1,4-oxazepan-6-ol], the IC50 in experiment [1] and in experiment [2] was 10 to 100 nM throughout.
Regarding `CCc1c(F)ccc2cc(O)cc(-c3cc4nc(OC[C@@]56CCCN5C[C@H](F)C6)nc(N5CC6CC(O)C(C6)C5)c4c4cn(C)nc34)c12` (stereo partly drawn) [Example 124, 3-[4-(8-ethyl-7-fluoro-3-hydroxy-1-naphthyl)-2-methyl-7-[[(2R,8S)-2-fluoro-1,2,3,5,6,7-hexahydropyrrolizin-8-yl]methoxy]pyrazolo[4,3-f]quinazolin-9-yl]-3-azabicyclo[3.2.1]octan-6-ol], the IC50 in experiment [1] and in experiment [2] was at most 10 nM throughout.
Turning to `CCc1c(F)ccc2cc(O)cc(-c3cc4nc(OC[C@@]56CCCN5C[C@H](F)C6)nc(N5CCCC6(CCO6)C5)c4c4cn(C)nc34)c12` (stereo partly drawn) [Example 125, 5-ethyl-6-fluoro-4-[2-methyl-9-(1-oxa-8-azaspiro[3.5]nonan-8-yl)-7-[[(2R,8S)-2-fluoro-1,2,3,5,6,7-hexahydropyrrolizin-8-yl]methoxy]pyrazolo[4,3-f]quinazolin-4-yl]naphthalen-2-ol], the IC50 in experiment [1] and in experiment [2] was 10 to 100 nM in each case.
As to `CCc1c(F)ccc2cc(O)cc(-c3cc4nc(OC[C@@]56CCCN5C[C@H](F)C6)nc(N5CCC(O)C(F)(F)CC5)c4c4cn(C)nc34)c12` (stereo partly drawn) [Example 126, 1-[4-(8-ethyl-7-fluoro-3-hydroxy-1-naphthyl)-2-methyl-7-[[(2R,8S)-2-fluoro-1,2,3,5,6,7-hexahydropyrrolizin-8-yl]methoxy]pyrazolo[4,3-f]quinazolin-9-yl]-5,5-difluoro-azepan-4-ol], the IC50 in experiment [1] and in experiment [2] was 10 to 100 nM throughout.
Take `CCc1c(F)ccc2cc(O)cc(-c3cc4nc(OC[C@@]56CCCN5C[C@H](F)C6)nc(N5CCC6CC6(O)C5)c4c4cn(C)nc34)c12` (stereo partly drawn) [Example 127, 3-[4-(8-ethyl-7-fluoro-3-hydroxy-1-naphthyl)-2-methyl-7-[[(2R,8S)-2-fluoro-1,2,3,5,6,7-hexahydropyrrolizin-8-yl]methoxy]pyrazolo[4,3-f]quinazolin-9-yl]-3-azabicyclo[4.1.0]heptan-1-ol]: the IC50 in experiment [1] and in experiment [2] was 10 to 100 nM throughout.
With `CCc1c(F)ccc2cc(O)cc(-c3cc4nc(OC[C@@]56CCCN5C[C@H](F)C6)nc(N5CC(C(C)(C)O)C5)c4c4cn(C)nc34)c12` [Example 128, 5-ethyl-6-fluoro-4-[9-[3-(1-hydroxy-1-methyl-ethyl)azetidin-1-yl]-2-methyl-7-[[(2R,8S)-2-fluoro-1,2,3,5,6,7-hexahydropyrrolizin-8-yl]methoxy]pyrazolo[4,3-f]quinazolin-4-yl]naphthalen-2-ol], in experiment [1], the “KRAS^WT NEA” value is “D (<49% inhibition at 10 μM)”. In experiment [2], the IC50 was 100 to 10000 nM.
Regarding `C#CC1(O)CCCN(c2nc(OC[C@@]34CCCN3C[C@H](F)C4)nc3cc(-c4cc(O)cc5ccc(F)c(CC)c45)c4nn(C)cc4c23)C1` (stereo partly drawn) [Example 129, 1-[4-(8-ethyl-7-fluoro-3-hydroxy-1-naphthyl)-2-methyl-7-[[(2R,8S)-2-fluoro-1,2,3,5,6,7-hexahydropyrrolizin-8-yl]methoxy]pyrazolo[4,3-f]quinazolin-9-yl]-3-ethynyl-piperidin-3-ol], the IC50 in experiment [1] and in experiment [2] was 10 to 100 nM each time.
Take `CCc1c(F)ccc2cc(O)cc(-c3cc4nc(OC[C@@]56CCCN5C[C@H](F)C6)nc(N5CCC6(CC6)C(O)C5)c4c4cn(C)nc34)c12` (stereo partly drawn) [Example 130, 6-[4-(8-ethyl-7-fluoro-3-hydroxy-1-naphthyl)-2-methyl-7-[[(2R,8S)-2-fluoro-1,2,3,5,6,7-hexahydropyrrolizin-8-yl]methoxy]pyrazolo[4,3-f]quinazolin-9-yl]-6-azaspiro[2.5]octan-8-ol]: the IC50 in experiment [1] was in the range of 100 to 10000 nM. The “KRAS^G12D NEA” value in experiment [2] was “D (<49% inhibition at 10 μM)”.
Take `CCc1c(F)ccc2cc(O)cc(-c3cc4nc(OC[C@@]56CCCN5C[C@H](F)C6)nc(N5CCCC(C)(OC)C5)c4c4cn(C)nc34)c12` (stereo partly drawn) [Example 131, 5-ethyl-6-fluoro-4-[9-(3-methoxy-3-methyl-1-piperidyl)-2-methyl-7-[[(2R,8S)-2-fluoro-1,2,3,5,6,7-hexahydropyrrolizin-8-yl]methoxy]pyrazolo[4,3-f]quinazolin-4-yl]naphthalen-2-ol]: the IC50 was 100 to 10000 nM in experiment [1] and 10 to 100 nM in experiment [2].
The corresponding values for `CCc1c(F)ccc2cc(O)cc(-c3cc4nc(OC[C@@]56CCCN5C[C@H](F)C6)nc(N5CCCC(C)(C#N)C5)c4c4cn(C)nc34)c12` (stereo partly drawn) [Example 132, 1-[4-(8-ethyl-7-fluoro-3-hydroxy-1-naphthyl)-2-methyl-7-[[(2R,8S)-2-fluoro-1,2,3,5,6,7-hexahydropyrrolizin-8-yl]methoxy]pyrazolo[4,3-f]quinazolin-9-yl]-3-methyl-piperidine-3-carbonitrile] are 100 to 10000 nM and 100 to 10000 nM.

Broadly, the IC50 is the concentration that gives 50% inhibition.
